Starred links: 1 amine or outer side, 2 acyl side, 3 side chain; linkers in the order of their positions; H or OH if unused. Residues, ends and D or L forms follow the SMILES beside them. Groups on a side chain read outwards from the residue. *: point of attachment. γGlu = O=C(O)[C@H](CCC(=O)[*:2])N[*:1]; Palmitoyl = CCCCCCCCCCCCCCCC(=O)*; AEEA = NCCOCCOCC(=O)O
How the values were obtained:
[1] = test system: C57B1/6 mice; test: Glucose tolerance test after subcutaneous GLP-1 antagonist (acute in vivo study); details: s.c. antagonist, i.p. glucose 1.5 g/kg four hours later
Method: FIGS. 2A & 2B present data from a glucose tolerance test wherein mice are subcutaneously administered the GLP-1 antagonist followed four hours later by intraperitoneal administration of glucose (1.5 g glucose per kg body weight).
C57B1/6 mice were obtained from Jackson Laboratories. Mice were single- or group-housed on a 12:12 h light-dark cycle at 22° C. with free access to food and water. All studies were approved by and performed according to the guidelines of the Institutional Animal Care and Use Committee of the University of Cincinnati.
For the determination of glucose tolerance, mice were subjected to 6 h of fasting and injected intraperitoneally with glucose. Injections consisted of 1.5 g glucose per kg body weight (25% w/v D-glucose (Sigma) in 0.9% w/v saline). Tail blood glucose levels (mg dL-1) were measured using a hand-held glucometer (FreeStyle Freedom Lite) before 0 min and at 15, 30, 60, and 120 min after injection.
Mice received a subcutaneous injection of peptide (in PBS) either 1, 4, 8, 24, 48, 72, or 120 at varying doses before being challenged with an IP injection of dipeptidyl peptidase-IV-protected Ex-4 (0.65 nmol kg−1). A GTT was performed fifteen minutes after the GLP-1 injection. Tail blood glucose values were obtained as described above.

[2] = target: T1, human GLP-1 receptor (Homo sapiens, UniProt P43220); test: GLP-1 receptor-mediated cAMP induction, luciferase reporter gene assay (antagonism mode); format: cell-based; details: Table 2; HEK 293 cells, human GLP-1R, vs 0.05 nM GLP-1; read-out: Bioactivity IC50
T1 construct: host or cells: HEK 293
T1 sequence (P43220 24-463): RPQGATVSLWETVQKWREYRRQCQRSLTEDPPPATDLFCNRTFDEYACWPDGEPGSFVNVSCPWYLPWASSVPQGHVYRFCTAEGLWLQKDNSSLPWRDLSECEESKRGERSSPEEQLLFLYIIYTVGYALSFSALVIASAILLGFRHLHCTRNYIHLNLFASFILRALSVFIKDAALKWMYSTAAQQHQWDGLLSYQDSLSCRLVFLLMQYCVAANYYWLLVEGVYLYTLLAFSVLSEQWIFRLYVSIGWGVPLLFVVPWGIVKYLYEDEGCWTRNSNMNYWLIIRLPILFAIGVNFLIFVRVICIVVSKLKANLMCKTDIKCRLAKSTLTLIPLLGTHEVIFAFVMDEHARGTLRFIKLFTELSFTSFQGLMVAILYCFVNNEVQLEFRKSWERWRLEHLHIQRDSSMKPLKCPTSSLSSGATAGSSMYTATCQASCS
Method: GLP-1 Receptor-Mediated cAMP Induction
The ability of peptides to stimulate or block cAMP induction at the GLP-1 receptor was examined by a luciferase-based reporter gene assay. Cotransfection of HEK 293 cells with the human GLP-1 receptor (Open Biosystems) and a cAMPinducible (cAMPresponsive element) luciferase gene constituted the cellular construct where receptor activation could be measured. Bioassays were performed by first serum depriving the cells for 16 h in 0.25% bovine growth serum (HyClone)-supplemented Dulbecco's modified Eagle's medium (Invitrogen) and then adding serial dilutions of the peptides over the appropriate concentration ranges in 96-well poly-D-lysine-coated plates (BD Biosciences). For antagonism assays, a constant concentration of GLP-1 (0.05 nM) was added to the assay plate after the diluted peptides. Incubation continued for 5 h at 37° C., 5% CO2 and was followed by the addition of an equivalent volume (100 μL) of LucLite luminescence substrate reagent (Perkin-Elmer). MicroBeta 1450 liquid scintillation counting (Perkin-Elmer) quantified the luminescence signal in counts per second (cps) after shaking the plate at 600 rpm for 3 min. Data was plotted using Origin software (OriginLab) and the effective concentration 50 (EC50) or inhibitory concentration 50 (IC50) was determined by sigmoidal fitting. Potency was determined by comparative analysis of relative EC50 or IC50 values. Each experiment was repeated at least three times with each sample assayed in duplicate.

[3] = Solubility of peptides in buffer; format: physicochemical; details: pH 7.7

Compound	GLP-1 antagonist activity in glucose tolerance test ([1]; FIG. 2A)	Potency relative to the GLP-1 antagonist Ex-9-40 in glucose tolerance test ([1]; FIGS. 2A & 2B)	IC50 [2] [nM]	solubility [3] [mg/mL]
CCCCCCCCCCCCCCCC(=O)N[C@@H](CCC(=O)NCCOCCOCC(=O)NCCCC[C@H](NC(=O)[C@H](CO)NC(=O)[C@@H]1CCCN1C(=O)[C@@H]1CCCN1C(=O)[C@@H]1CCCN1C(=O)[C@H](C)NC(=O)CNC(=O)[C@H](CO)NC(=O)[C@H](CO)NC(=O)[C@@H]1CCCN1C(=O)CNC(=O)CNC(=O)[C@H](CCCNC(=N)N)NC(=O)[C@@H](NC(=O)[C@H](CC(C)C)NC(=O)[C@H](Cc1c[nH]c2ccccc12)NC(=O)[C@H](CCC(=O)O)NC(=O)[C@@H](NC(=O)[C@H](Cc1ccccc1)NC(=O)[C@H](CCC(=O)O)NC(=O)[C@H](CCCNC(=N)N)NC(=O)[C@@H](NC(=O)[C@H](C)NC(=O)[C@H](CCC(N)=O)NC(=O)[C@H](CCC(=O)O)NC(=O)[C@H](CCC(=O)O)NC(=O)[C@H](CC(C)C)NC(=O)[C@H](Cc1ccc(O)cc1)NC(=O)[C@H](CCCNC(=N)N)NC(=O)[C@H](CO)NC(=O)[C@@H](NC(=O)[C@@H](N)CC(=O)O)C(C)C)C(C)C)[C@@H](C)CC)C(C)C)C(=O)O)C(=O)O [SEQ ID NO: 16] (H-DVSRYLEEQAVREFIEWLVRGGPSSGAPPPSK([AEEA-γGlu-Palmitoyl])-OH)	full antagonist	much higher potency		
CCCCCCCCCCCCCCCC(=O)N[C@@H](CCC(=O)NCCOCCOCC(=O)NCCOCCOCC(=O)N[C@@H](CCC(=O)NCCCC[C@H](NC(=O)[C@H](CO)NC(=O)[C@@H]1CCCN1C(=O)[C@@H]1CCCN1C(=O)[C@@H]1CCCN1C(=O)[C@H](C)NC(=O)CNC(=O)[C@H](CO)NC(=O)[C@H](CO)NC(=O)[C@@H]1CCCN1C(=O)CNC(=O)CNC(=O)[C@H](CCCCN)NC(=O)[C@@H](NC(=O)[C@H](CC(C)C)NC(=O)[C@H](Cc1c[nH]c2ccccc12)NC(=O)[C@H](C)NC(=O)[C@@H](NC(=O)[C@H](Cc1ccccc1)NC(=O)[C@H](CCC(=O)O)NC(=O)[C@H](CCCNC(=N)N)NC(=O)[C@@H](NC(=O)[C@H](C)NC(=O)[C@H](CCC(N)=O)NC(=O)[C@H](CCC(=O)O)NC(=O)[C@H](CCC(=O)O)NC(=O)[C@H](CC(C)C)NC(=O)[C@H](Cc1ccc(O)cc1)NC(=O)[C@H](CO)NC(=O)[C@H](CO)NC(=O)[C@@H](NC(=O)[C@@H](N)CC(=O)O)C(C)C)C(C)C)[C@@H](C)CC)C(C)C)C(N)=O)C(=O)O)C(=O)O [SEQ ID NO: 57] (H-DVSSYLEEQAVREFIAWLVKGGPSSGAPPPSK([γGlu-AEEA-AEEA-γGlu-Palmitoyl])-NH2; N-terminus assumed)			9	> 25
CCCCCCCCCCCCCCCC(=O)NCCOCCOCC(=O)NCCOCCOCC(=O)N[C@@H](CCC(=O)N[C@@H](CCC(=O)NCCCC[C@H](NC(=O)[C@H](CO)NC(=O)[C@@H]1CCCN1C(=O)[C@@H]1CCCN1C(=O)[C@@H]1CCCN1C(=O)[C@H](C)NC(=O)CNC(=O)[C@H](CO)NC(=O)[C@H](CO)NC(=O)[C@@H]1CCCN1C(=O)CNC(=O)CNC(=O)[C@H](CCCCN)NC(=O)[C@@H](NC(=O)[C@H](CC(C)C)NC(=O)[C@H](Cc1c[nH]c2ccccc12)NC(=O)[C@H](C)NC(=O)[C@@H](NC(=O)[C@H](Cc1ccccc1)NC(=O)[C@H](CCC(=O)O)NC(=O)[C@H](CCCNC(=N)N)NC(=O)[C@@H](NC(=O)[C@H](C)NC(=O)[C@H](CCC(N)=O)NC(=O)[C@H](CCC(=O)O)NC(=O)[C@H](CCC(=O)O)NC(=O)[C@H](CC(C)C)NC(=O)[C@H](Cc1ccc(O)cc1)NC(=O)[C@H](CO)NC(=O)[C@H](CO)NC(=O)[C@@H](NC(=O)[C@@H](N)CC(=O)O)C(C)C)C(C)C)[C@@H](C)CC)C(C)C)C(N)=O)C(=O)O)C(=O)O [SEQ ID NO: 61] (H-DVSSYLEEQAVREFIAWLVKGGPSSGAPPPSK([γGlu-γGlu-AEEA-AEEA-Palmitoyl])-NH2; N-terminus assumed)			6	> 25
CCCCCCCCCCCCCCCC(=O)N[C@@H](CCC(=O)N[C@@H](CCC(=O)NCCOCCOCC(=O)NCCOCCOCC(=O)NCCCC[C@H](NC(=O)[C@H](CO)NC(=O)[C@@H]1CCCN1C(=O)[C@@H]1CCCN1C(=O)[C@@H]1CCCN1C(=O)[C@H](C)NC(=O)CNC(=O)[C@H](CO)NC(=O)[C@H](CO)NC(=O)[C@@H]1CCCN1C(=O)CNC(=O)CNC(=O)[C@H](CCCCN)NC(=O)[C@@H](NC(=O)[C@H](CC(C)C)NC(=O)[C@H](Cc1c[nH]c2ccccc12)NC(=O)[C@H](C)NC(=O)[C@@H](NC(=O)[C@H](Cc1ccccc1)NC(=O)[C@H](CCC(=O)O)NC(=O)[C@H](CCCNC(=N)N)NC(=O)[C@@H](NC(=O)[C@H](C)NC(=O)[C@H](CCC(N)=O)NC(=O)[C@H](CCC(=O)O)NC(=O)[C@H](CCC(=O)O)NC(=O)[C@H](CC(C)C)NC(=O)[C@H](Cc1ccc(O)cc1)NC(=O)[C@H](CO)NC(=O)[C@H](CO)NC(=O)[C@@H](NC(=O)[C@@H](N)CC(=O)O)C(C)C)C(C)C)[C@@H](C)CC)C(C)C)C(N)=O)C(=O)O)C(=O)O [SEQ ID NO: 58] (H-DVSSYLEEQAVREFIAWLVKGGPSSGAPPPSK([AEEA-AEEA-γGlu-γGlu-Palmitoyl])-NH2; N-terminus assumed)			11	
